Assay results: the NIST ThermoML archive (doi:10.1021/je060411g)

Assay: molar heat capacity at constant pressure
Conditions: 101.33 kPa, Crystal 2

CC(C)(C)CO [2,2-dimethyl-1-propanol]
Vacuum adiabatic calorimetry
Conditions | molar heat capacity at constant pressure [J/K/mol]
6.04 K | 1.42
6.22 K | 1.34
6.72 K | 1.62
6.93 K | 1.79
7.63 K | 2.48
7.66 K | 2.49
8.46 K | 3.25
8.71 K | 3.26
9.38 K | 3.5
9.84 K | 3.94
10.52 K | 4.52
11.19 K | 4.61
11.74 K | 4.61
12.6 K | 5.48
12.96 K | 6.1
13.95 K | 7.71
14.12 K | 7.8
15.22 K | 9.22
15.26 K | 9.22
16.54 K | 10.78
16.63 K | 10.92
17.89 K | 12.37
18.17 K | 12.68
19.28 K | 14.02
19.75 K | 14.6
20.7 K | 15.68
21.36 K | 16.44
22.16 K | 17.26
23.02 K | 18.27
23.65 K | 18.89
24.72 K | 20.07
25.17 K | 20.52
26.45 K | 21.86
26.71 K | 22.12
27.26 K | 22.45
27.45 K | 22.66
28.26 K | 23.73
28.44 K | 23.84
29.84 K | 25.29
30.14 K | 25.52
31.75 K | 26.93
33.36 K | 28.48
35.01 K | 29.81
36.67 K | 31.13
38.35 K | 32.76
40.05 K | 33.71
41.77 K | 34.97
43.5 K | 36.21
45.25 K | 37.39
47.01 K | 38.58
48.78 K | 39.8
50.56 K | 40.96
52.36 K | 42.15
54.16 K | 43.42
55.98 K | 44.6
57.81 K | 45.76
59.64 K | 46.96
61.49 K | 48
63.34 K | 48.9
65.21 K | 49.05
67.11 K | 48.13
69.02 K | 47.57
70.93 K | 51.84
72.82 K | 53.62
74.71 K | 54.48
76.62 K | 55.54
78.53 K | 57.23
80.43 K | 58.98
82.34 K | 59.82
84.25 K | 60.91
86.17 K | 61.94
88.09 K | 63.01
90.01 K | 64.26
91.94 K | 65.3
93.72 K | 66.04
93.87 K | 66.34
93.99 K | 65.67
95.11 K | 67.03
95.8 K | 67.7
97.08 K | 68.3
97.74 K | 68.54
99.03 K | 69.37
99.68 K | 69.74
100.97 K | 70.67
102.92 K | 71.57
104.87 K | 72.73
106.82 K | 73.77
108.77 K | 74.92
110.72 K | 75.98
112.68 K | 77.06
114.63 K | 78.14
116.59 K | 79.23
118.55 K | 80.35
120.51 K | 81.5
122.47 K | 82.44
124.43 K | 83.56
126.39 K | 84.65
128.36 K | 85.69
130.32 K | 86.79
131.73 K | 87.42
132.15 K | 87.41
132.29 K | 87.89
133.36 K | 88.24
134.27 K | 88.87
135.34 K | 89.35
136.24 K | 89.94
137.31 K | 90.43
139.28 K | 91.45
141.25 K | 92.54
143.22 K | 93.56
145.19 K | 94.64
147.17 K | 95.67
149.14 K | 96.7
151.11 K | 97.64
153.09 K | 98.81

Conditions | molar heat capacity at constant pressure [J/K/mol]
10 K | 4.09
15 K | 9
20 K | 14.89
25 K | 20.35
30 K | 25.41
35 K | 29.8
40 K | 33.67
45 K | 37.23
50 K | 40.59
55 K | 43.96
60 K | 47.18
65 K | 49.1
70 K | 49.5
75 K | 54.63
80 K | 58.6
85 K | 61.31
90 K | 64.25
95 K | 66.91
100 K | 69.96
105 K | 72.8
110 K | 75.58
120 K | 81.21
130 K | 86.6
140 K | 91.85
150 K | 97.11
